{"source": "ChEMBL document CHEMBL1201862", "about": "“PubChem BioAssay data set” (2004)", "key": {"[1]": {"target": "T1, Small ubiquitin-related modifier 1 (Homo sapiens, UniProt P63165)", "T1 sequence (P63165 whole entry)": "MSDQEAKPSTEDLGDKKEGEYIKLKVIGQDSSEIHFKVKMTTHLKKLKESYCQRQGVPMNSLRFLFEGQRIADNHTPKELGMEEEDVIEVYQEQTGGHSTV", "assay": "SUMO1 protein-protein binding blockers, potency – biochemical, FRET, dose response (AID 624383)", "assay_type": "functional", "conditions": "read-out: IC50_Mean"}, "[2]": {"target": "Peroxisome proliferator-activated receptor gamma/Nuclear receptor corepressor 2 (Homo sapiens, UniProt P37231+Q9Y618)", "assay": "Counterscreen for NR2E3 inverse agonists: TR-FRET-based biochemical high throughput dose response assay to identify inverse agonists of the interaction between peroxisome proliferator-activated receptor gamma (PPARg) and nuclear receptor co-repressor 2 (NCOR2).", "assay_type": "functional"}, "[3]": {"target": "T1, Small ubiquitin-related modifier 1", "assay": "SUMO1 protein interaction blockers, potency – biochemical, fluorescence polarization, uHTS hits, dose response (AID 624382)", "assay_type": "functional", "conditions": "read-out: IC50_Mean"}, "[4]": {"target": "Photoreceptor-specific nuclear receptor (Homo sapiens, UniProt Q9Y5X4)", "sequence (Q9Y5X4 whole entry)": "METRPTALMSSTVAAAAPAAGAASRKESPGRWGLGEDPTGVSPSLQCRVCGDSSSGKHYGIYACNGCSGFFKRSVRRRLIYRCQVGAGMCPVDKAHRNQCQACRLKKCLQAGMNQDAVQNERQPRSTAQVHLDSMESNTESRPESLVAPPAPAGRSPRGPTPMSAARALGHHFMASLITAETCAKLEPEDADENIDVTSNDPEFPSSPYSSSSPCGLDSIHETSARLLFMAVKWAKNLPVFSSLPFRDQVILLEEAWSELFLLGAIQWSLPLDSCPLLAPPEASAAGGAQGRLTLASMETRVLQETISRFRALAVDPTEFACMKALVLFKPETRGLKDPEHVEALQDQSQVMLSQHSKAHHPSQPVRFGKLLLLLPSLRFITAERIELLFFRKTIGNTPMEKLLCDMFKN", "assay": "ligands suppressing NR2E3 nuclear receptor activity – biochemical, TR-FRET, dose response (AID 463256)", "assay_type": "functional"}, "[5]": {"target": "Peroxisome proliferator-activated receptor gamma/Nuclear receptor coactivator 1 (Homo sapiens, UniProt P37231)", "sequence (P37231 whole entry)": "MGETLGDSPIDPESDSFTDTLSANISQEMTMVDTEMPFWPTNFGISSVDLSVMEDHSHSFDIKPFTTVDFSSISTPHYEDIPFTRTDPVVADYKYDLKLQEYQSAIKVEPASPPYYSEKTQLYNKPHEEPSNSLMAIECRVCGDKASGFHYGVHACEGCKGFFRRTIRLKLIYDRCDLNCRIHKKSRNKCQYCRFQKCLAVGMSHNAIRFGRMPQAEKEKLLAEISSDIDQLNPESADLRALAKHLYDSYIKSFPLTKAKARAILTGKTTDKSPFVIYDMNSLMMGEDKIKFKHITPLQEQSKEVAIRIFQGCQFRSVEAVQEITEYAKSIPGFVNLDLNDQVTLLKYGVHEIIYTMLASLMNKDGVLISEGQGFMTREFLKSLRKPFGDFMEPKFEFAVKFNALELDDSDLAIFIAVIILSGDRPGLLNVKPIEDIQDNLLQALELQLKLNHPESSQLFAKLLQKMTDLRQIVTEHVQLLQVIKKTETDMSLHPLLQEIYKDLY", "sequence (Q15788 whole entry, further chain)": "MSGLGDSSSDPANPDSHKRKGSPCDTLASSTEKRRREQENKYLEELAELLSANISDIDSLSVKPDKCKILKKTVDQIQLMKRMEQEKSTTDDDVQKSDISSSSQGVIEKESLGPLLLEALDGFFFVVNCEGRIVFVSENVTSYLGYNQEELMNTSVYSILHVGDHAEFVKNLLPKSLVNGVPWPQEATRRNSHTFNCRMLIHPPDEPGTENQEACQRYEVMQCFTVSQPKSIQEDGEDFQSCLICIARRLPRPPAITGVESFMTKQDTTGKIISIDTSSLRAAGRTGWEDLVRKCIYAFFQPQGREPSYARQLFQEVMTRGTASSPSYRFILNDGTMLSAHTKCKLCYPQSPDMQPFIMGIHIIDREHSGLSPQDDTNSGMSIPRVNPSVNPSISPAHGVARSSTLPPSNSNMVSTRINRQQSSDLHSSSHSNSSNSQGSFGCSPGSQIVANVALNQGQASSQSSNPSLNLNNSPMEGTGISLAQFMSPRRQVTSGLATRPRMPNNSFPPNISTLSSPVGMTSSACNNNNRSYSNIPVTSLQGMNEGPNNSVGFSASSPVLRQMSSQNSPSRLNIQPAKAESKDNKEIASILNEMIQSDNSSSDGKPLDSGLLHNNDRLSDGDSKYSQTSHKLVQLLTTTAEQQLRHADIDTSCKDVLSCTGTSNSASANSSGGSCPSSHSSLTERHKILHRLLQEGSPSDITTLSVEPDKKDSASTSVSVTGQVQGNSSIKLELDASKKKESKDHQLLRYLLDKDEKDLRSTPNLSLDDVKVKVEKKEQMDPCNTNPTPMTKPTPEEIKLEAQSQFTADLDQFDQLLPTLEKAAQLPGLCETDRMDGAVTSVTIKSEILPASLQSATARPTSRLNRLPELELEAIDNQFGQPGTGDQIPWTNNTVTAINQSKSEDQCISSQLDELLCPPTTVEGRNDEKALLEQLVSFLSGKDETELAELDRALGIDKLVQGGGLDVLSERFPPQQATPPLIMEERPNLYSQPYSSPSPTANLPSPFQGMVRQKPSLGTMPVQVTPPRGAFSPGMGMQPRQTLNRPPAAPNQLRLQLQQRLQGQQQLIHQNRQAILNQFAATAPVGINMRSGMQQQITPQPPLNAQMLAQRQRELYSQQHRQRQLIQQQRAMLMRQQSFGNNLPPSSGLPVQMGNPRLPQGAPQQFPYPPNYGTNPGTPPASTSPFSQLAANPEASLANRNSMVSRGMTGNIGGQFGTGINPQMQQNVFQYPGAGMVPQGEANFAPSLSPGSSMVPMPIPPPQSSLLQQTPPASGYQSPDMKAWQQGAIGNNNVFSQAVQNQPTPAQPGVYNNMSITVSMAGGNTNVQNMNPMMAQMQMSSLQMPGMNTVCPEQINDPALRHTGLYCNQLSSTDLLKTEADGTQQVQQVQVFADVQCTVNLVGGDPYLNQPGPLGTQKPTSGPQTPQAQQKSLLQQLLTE", "assay_type": "functional"}, "[6]": {"target": "Peroxisome proliferator-activated receptor gamma/Nuclear receptor coactivator 3 (Homo sapiens, UniProt P37231)", "sequence (P37231 whole entry)": "as the sequence (P37231 whole entry) above", "sequence (Q9Y6Q9 whole entry, further chain)": "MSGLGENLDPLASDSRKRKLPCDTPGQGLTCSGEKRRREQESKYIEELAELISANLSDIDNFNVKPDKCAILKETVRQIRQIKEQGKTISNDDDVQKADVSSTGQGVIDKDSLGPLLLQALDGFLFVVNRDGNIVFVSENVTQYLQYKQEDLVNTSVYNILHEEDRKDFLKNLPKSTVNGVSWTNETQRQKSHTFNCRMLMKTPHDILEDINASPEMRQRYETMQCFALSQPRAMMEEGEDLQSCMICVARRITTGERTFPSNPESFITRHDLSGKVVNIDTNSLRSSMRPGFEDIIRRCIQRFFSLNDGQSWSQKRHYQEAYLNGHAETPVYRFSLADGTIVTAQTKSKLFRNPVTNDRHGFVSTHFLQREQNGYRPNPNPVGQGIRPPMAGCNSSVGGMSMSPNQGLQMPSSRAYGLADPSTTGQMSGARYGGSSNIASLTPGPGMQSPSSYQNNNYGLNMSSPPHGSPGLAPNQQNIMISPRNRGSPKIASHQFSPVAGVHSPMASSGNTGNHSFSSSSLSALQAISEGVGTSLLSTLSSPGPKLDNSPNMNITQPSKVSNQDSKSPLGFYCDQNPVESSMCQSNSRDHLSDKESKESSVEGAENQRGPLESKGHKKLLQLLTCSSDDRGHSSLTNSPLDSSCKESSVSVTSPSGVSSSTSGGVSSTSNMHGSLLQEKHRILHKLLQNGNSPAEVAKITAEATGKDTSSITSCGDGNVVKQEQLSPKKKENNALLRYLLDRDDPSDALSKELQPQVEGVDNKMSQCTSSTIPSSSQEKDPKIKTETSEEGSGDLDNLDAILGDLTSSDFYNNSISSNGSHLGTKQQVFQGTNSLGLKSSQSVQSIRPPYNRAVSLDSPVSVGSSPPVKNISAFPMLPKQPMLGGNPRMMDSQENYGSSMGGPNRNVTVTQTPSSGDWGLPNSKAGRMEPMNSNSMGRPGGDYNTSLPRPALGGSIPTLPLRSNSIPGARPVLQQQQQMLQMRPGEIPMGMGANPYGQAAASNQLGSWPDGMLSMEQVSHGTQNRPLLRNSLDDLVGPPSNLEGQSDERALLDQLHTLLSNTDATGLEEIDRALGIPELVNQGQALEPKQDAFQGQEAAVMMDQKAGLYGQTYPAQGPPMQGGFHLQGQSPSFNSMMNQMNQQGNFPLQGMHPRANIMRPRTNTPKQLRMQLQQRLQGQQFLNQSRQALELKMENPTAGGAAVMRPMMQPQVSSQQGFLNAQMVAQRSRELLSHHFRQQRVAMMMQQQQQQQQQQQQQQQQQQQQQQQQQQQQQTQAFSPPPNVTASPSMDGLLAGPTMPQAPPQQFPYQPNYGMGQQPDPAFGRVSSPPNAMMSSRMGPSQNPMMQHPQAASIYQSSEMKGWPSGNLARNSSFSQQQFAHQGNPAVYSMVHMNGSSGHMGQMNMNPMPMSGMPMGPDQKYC", "assay_type": "functional"}, "[7]": {"target": "Peroxisome proliferator-activated receptor gamma/Nuclear receptor coactivator 2 (Homo sapiens, UniProt P37231)", "assay_type": "functional"}, "BJ [8]": {"tested_on": "BJ", "assay": "growth inhibition of engineered Ras-driven BJ cells – cell-based, alamar blue fluorescence, cherrypicked samples, dose response (AID 2631)", "assay_type": "functional", "conditions": "Homo sapiens"}, "[9]": {"assay": "Luminescent dose response cell-based high throughput screening assay for inhibitors of the Janus kinase 2 mutant JAK2V617F. [Related pubchem assays: 1446 (Primary screen.), 1521 (Confirmation assay.), 1486 (Counter screen.)]", "assay_type": "functional"}, "BJ [10]": {"tested_on": "BJ", "assay": "cells", "assay_type": "functional, cell-based", "conditions": "Homo sapiens"}, "BJ [11]": {"tested_on": "BJ", "assay": "BJ-TERT fibroblast viability loss – cell-based, RAS-independent, luminescence, dose response (AID 1933)", "assay_type": "functional", "conditions": "Homo sapiens"}, "Protein RecA": {"target": "T2, Protein RecA (Mycobacterium tuberculosis, UniProt P9WHJ3)", "T2 sequence (P9WHJ3 whole entry)": "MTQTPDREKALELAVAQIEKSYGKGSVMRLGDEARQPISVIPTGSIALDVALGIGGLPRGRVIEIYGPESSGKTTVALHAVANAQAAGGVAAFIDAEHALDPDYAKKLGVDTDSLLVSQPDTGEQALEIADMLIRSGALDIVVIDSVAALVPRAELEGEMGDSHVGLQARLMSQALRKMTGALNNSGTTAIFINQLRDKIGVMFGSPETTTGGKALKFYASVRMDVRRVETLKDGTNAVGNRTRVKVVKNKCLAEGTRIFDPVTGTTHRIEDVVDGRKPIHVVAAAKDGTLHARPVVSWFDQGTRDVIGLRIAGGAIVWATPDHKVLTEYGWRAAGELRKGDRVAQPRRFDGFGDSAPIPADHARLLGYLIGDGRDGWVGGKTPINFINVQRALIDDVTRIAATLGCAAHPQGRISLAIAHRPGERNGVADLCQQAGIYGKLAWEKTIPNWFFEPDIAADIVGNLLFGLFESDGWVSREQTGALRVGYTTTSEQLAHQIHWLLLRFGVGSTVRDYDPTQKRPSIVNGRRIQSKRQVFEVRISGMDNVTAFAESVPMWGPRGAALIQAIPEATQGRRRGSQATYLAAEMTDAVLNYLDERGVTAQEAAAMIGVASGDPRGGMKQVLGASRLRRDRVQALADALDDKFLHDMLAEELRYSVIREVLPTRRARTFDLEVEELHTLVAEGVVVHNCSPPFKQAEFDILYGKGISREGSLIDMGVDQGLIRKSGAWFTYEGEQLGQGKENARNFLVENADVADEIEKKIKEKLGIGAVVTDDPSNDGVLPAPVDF", "assay": "Fluorescence Cell-Free Homogeneous Dose Retest to Identify Inhibitors of RecA-Intein Splicing Activity. [Related pubchem assays (depositor defined):AID2097, AID2223, AID489010, AID492950]", "assay_type": "functional"}, "Paired box protein Pax-8": {"target": "Paired box protein Pax-8 (Homo sapiens, UniProt Q06710)", "sequence (Q06710 whole entry)": "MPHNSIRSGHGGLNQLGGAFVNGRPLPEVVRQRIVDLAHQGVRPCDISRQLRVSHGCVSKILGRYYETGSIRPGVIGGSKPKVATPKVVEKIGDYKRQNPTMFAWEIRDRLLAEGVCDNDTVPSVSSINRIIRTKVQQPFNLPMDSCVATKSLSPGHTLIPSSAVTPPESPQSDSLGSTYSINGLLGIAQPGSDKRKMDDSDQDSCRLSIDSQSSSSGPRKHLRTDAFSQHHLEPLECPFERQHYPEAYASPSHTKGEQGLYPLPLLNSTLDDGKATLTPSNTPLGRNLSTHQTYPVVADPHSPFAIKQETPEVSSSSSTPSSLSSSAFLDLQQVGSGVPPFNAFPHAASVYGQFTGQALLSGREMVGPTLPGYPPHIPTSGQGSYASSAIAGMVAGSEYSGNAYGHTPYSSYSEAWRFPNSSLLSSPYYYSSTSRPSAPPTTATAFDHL", "assay": "PAX8 transcriptional activity inhibition in RMG-I – RMG-I cells, luciferase, cherry-pick, dose response (AID 687027);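 also: luciferase reporter driven by Pax8 target thyroperoxidase promoter measured by SteadyGlo luminescence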", "assay_type": "functional, cell-based"}, "[12]": {"target": "T3, Replicative DNA helicase DnaB (Mycobacterium tuberculosis, UniProt P9WMR3)", "T3 sequence (P9WMR3 whole entry)": "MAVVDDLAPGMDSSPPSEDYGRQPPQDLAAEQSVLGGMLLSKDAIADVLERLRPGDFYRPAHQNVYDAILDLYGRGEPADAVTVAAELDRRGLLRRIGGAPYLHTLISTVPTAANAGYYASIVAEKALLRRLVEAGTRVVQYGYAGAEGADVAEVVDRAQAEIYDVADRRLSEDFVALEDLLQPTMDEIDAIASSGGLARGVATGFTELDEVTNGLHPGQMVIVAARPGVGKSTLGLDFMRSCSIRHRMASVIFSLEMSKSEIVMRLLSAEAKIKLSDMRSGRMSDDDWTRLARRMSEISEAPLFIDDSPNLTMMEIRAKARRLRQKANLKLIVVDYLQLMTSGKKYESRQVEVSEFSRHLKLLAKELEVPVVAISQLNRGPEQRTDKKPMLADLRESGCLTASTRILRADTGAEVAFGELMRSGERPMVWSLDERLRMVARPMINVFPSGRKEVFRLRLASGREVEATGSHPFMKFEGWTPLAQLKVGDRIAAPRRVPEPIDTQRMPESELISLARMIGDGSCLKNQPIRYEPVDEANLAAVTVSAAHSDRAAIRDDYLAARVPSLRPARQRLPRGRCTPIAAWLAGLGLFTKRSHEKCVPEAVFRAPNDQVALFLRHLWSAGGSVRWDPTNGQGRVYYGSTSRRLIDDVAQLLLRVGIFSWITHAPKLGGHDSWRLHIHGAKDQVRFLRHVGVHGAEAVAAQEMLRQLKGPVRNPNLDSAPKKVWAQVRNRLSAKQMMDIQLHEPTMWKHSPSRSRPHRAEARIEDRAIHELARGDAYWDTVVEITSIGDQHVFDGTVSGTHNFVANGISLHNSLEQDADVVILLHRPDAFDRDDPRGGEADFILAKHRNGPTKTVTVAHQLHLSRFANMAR", "assay": "DnaB intein splicing inhibitors, dose response, biochemical, cell-free fluorescence (AID 449749)", "assay_type": "functional"}, "[13]": {"target": "T4, Microphthalmia-associated transcription factor (Homo sapiens, UniProt O75030)", "T4 sequence (O75030 whole entry)": "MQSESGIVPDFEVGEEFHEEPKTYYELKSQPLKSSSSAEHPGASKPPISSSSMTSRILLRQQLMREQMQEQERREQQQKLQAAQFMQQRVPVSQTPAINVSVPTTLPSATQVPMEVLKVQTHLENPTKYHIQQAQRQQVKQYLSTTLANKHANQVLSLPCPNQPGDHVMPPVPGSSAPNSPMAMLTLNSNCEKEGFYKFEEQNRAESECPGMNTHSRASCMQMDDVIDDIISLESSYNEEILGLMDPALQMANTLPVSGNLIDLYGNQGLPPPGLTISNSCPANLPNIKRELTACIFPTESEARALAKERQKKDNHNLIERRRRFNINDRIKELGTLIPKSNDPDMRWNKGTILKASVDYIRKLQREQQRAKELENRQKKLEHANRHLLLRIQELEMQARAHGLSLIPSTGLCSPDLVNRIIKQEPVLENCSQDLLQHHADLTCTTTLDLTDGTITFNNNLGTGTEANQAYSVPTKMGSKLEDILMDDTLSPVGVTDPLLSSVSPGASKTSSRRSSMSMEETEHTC", "assay": "reducers of TRPM1 reporter luminescence, concentration series – cell-based, SK-MEL-5, cherry-picked, set 3, MITF inhibitor project, dose response (AID 493073)", "assay_type": "functional"}, "[14]": {"assay": "DRD fibroblast viability loss – cell-based, non-viral oncogenic, luminescence, dose response (AID 1934)", "assay_type": "functional", "conditions": "Homo sapiens"}, "[15]": {"assay": "general cell-killing toxicity readout – plate reader, dry powder samples, cytotoxicity control for PAX8 inhibitor project, dose response (AID 743021)", "assay_type": "functional, cell-based"}, "BJ [16]": {"tested_on": "BJ", "assay": "BJ-TERT-LT-ST fibroblast viability loss – cell-based, RAS-independent, luminescence, dose response (AID 1935);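 also: BJ fibroblasts immortalized with TERT plus LT and ST oncogenes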", "assay_type": "functional", "conditions": "Homo sapiens"}}, "note": "Active and inactive are the calls of the source."}
{"smiles": "Cc1ccc(NC(=O)CSc2nc3ccccc3c3nc(CCc4c(C)n[nH]c4C)nn23)cc1F", "values": [{"measurement": "IC50", "setting": "[1]", "value": "3.78 µM (active)"}, {"measurement": "IC50", "setting": "[2]", "value": "0.356 µM (active)"}, {"measurement": "IC50", "setting": "[3]", "value": "> 66.6 µM (inactive)"}, {"measurement": "IC50", "setting": "[4]", "value": "0.474 µM (active)"}]}
{"smiles": "Cc1cc(C)c(S(=O)(=O)Nc2ccc3[nH]c(O)nc3c2)c(C)c1", "values": [{"measurement": "EC50", "setting": "[5]", "value": "> 79.4 µM (not active)"}, {"measurement": "EC50", "setting": "[6]", "value": "> 79.4 µM (not active)"}, {"measurement": "EC50", "setting": "[7]", "value": "> 79.4 µM (not active)"}]}
{"smiles": "COc1ccccc1N(C(=O)CCl)c1cn(C(C)=O)c2ccccc12", "values": [{"measurement": "EC50", "setting": "BJ [8]", "value": "1.52 µM (active)"}, {"measurement": "IC50", "setting": "[9]", "value": "1.2 µM (active)"}, {"measurement": "EC50", "setting": "BJ [10]", "value": "5.64 µM (active)"}, {"measurement": "EC50", "setting": "BJ [11]", "value": "5.21 µM (inconclusive)"}, {"measurement": "EC50", "setting": "Protein RecA", "value": "0.846 µM (active)"}, {"measurement": "AC50", "setting": "Paired box protein Pax-8", "value": "1.56 µM (active)"}, {"measurement": "AC50", "setting": "[12]", "value": "12.8 µM (active)"}, {"measurement": "AC50", "setting": "[13]", "value": "8.82 µM (active)"}, {"measurement": "EC50", "setting": "[14]", "value": "3.11 µM (active)"}, {"measurement": "AC50", "setting": "[15]", "value": "3.66 µM (active)"}, {"measurement": "EC50", "setting": "BJ [16]", "value": "> 150 µM (inconclusive)"}]}
